Test results published in article PMC12948427 (The Journal of Clinical Investigation, 2025).
“And” between values parts separate entries of the source, which are not always exact repeats. Equal entries are not always repeated. Where two headings read alike, the source gives them in different places.

Assays:
[1] = target: hHgs 1-390 protein (Homo sapiens, UniProt O14964); assay: biochemical
[2] = tested on: MHV
[3] = tested on: Vero E6 cells
[4] = type: cell-based
[5] = tested on: MHV; type: cell-based, mouse hepatitis virus (MHV); settings: for Inhibition, combination matrix (Figure S12C): Molnupiravir 0 uM; for Inhibition, combination matrix (Figure S12D): nirmatrelvir 0 uM
[6] = target: hHGS 1-390-6 × HIS protein (Homo sapiens, UniProt O14964); assay: biochemical
[7] = tested on: HCoV-OC43; assay: Infection of ALI-cultured primary HBEs, HCoV-OC43; type: cell-based
Description: Primary HBEs at passage 3 or earlier were seeded at a density of 40,000 cells per well in Transwell inserts (Costar 6.5 mm Transwell, 0.4 μm Pore Polyester Membrane Inserts, catalog 3470) for expansion culture. The cells were cultured in expansion medium (PneumaCult-Ex Plus Medium, catalog 05040) until tight junctions were formed. Once tight junctions were established, the expansion medium in the upper chamber was discarded, and the medium in the lower chamber was replaced with ALI differentiation medium (PneumaCult-ALI Medium, catalog 05001). Cells were maintained under ALI conditions, with the medium being changed every 2 days. The differentiation process was carried out for 21 days, during which cell morphology and differentiation status were monitored. The fully differentiated cells were infected with HCoV-OC43, HCoV-229E, HCoV-NL63, or SARS-CoV-2 (MOI = 1), and fresh medium was changed 1 hour postinfection. Specific peptide was added into the medium every 24 hours. At 96 hours postinfection, cells in Transwell inserts were washed with 140 μL PBS per insert, and the wash fluid was collected to extract virus RNA followed by RT-qPCR. […] The fluorescence was measured using ImageJ (NIH).

[8] = tested on: HCoV-OC43; assay: In vitro antiviral activity assay (IFA), HCoV-OC43; type: cell-based; settings: for Inhibition rate (IFA): Fig 5E, MOI 0.1, 48 h
[9] = tested on: HCoV-229E; assay: In vitro antiviral activity assay (IFA), HCoV-229E; type: cell-based; settings: for Inhibition rate (IFA): Fig 5F, MOI 0.1, 48 h
[10] = tested on: SARS-CoV-2 M protein; type: cell-based
[11] = tested on: SARS-CoV-2 wild-type; assay: microbe, parasite or virus in culture; type: cell-based; settings: Severe acute respiratory syndrome coronavirus 2, 24 h, read-out: EC50 (IFA)
[12] = tested on: MHV; type: cell-based, mouse hepatitis virus (MHV)

Chain of hHgs 1-390 protein (O14964 1-390): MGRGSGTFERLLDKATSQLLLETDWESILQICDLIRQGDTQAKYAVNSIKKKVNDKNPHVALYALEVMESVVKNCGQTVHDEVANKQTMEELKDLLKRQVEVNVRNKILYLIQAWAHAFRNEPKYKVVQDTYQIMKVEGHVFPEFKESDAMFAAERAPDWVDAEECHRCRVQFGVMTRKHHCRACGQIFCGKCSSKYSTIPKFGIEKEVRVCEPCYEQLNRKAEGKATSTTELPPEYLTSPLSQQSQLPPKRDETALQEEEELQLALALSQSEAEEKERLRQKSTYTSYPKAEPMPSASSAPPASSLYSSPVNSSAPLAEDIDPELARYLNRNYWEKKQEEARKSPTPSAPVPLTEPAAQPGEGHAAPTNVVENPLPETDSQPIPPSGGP
Chain of hHGS 1-390-6 × HIS protein (O14964 1-390): as above

Question: What does the source list for `CCCC(=O)OC[C@@H](OC(=O)CCC)[C@@H](OC(=O)CCC)[C@H](Cn1c2nc(=O)[nH]c(=O)c-2nc2cc(C)c(C)cc21)OC(=O)CCC` [RTB, riboflavin tetrabutyrate]?
Answer: IC50 [1]: 0.58 µM; viability of infected cells (rescue of cytopathic effect), Figures S9G-L ([2]; concentration 10): 46.6398 and 47.8192 and 45.9379; viability of infected cells (rescue of cytopathic effect), Figures S9G-L ([2]; concentration 30): 48.4931 and 47.9876 and 45.7132; viability of infected cells (rescue of cytopathic effect), Figures S9G-L ([2]; concentration 100): 49.4197 and 48.1842 and 47.2295; viability of infected cells (rescue of cytopathic effect), Figures S9G-L ([2]; concentration 300): 52.6488 and 47.5665 and 45.7132; viability of infected cells (rescue of cytopathic effect), Figures S9G-L ([2]; concentration 1000): 53.6878 and 50.8517 and 50.0094; viability of infected cells (rescue of cytopathic effect), Figures S9G-L ([2]; concentration 3000): 66.4358 and 61.915 and 62.9259; viability of infected cells (rescue of cytopathic effect), Figures S9G-L ([2]; concentration 10000): 81.009 and 81.0651 and 81.6829; viability of infected cells (rescue of cytopathic effect), Figures S9G-L ([2]; concentration 25000): 85.0805 and 84.4908 and 83.1711; cell viability, Figure S9M ([3]; concentration 100): 90.9619 and 91.4921 and 91.5678; cell viability, Figure S9M ([3]; concentration 200): 83.3123 and 82.1005 and 89.9015; cell viability, Figure S9M ([3]; concentration 500): 91.4921 and 86.1146 and 87.6294; cell viability, Figure S9M ([3]; concentration 1000): 92.9311 and 88.614 and 83.4638; cell viability, Figure S9M ([3]; concentration 2000): 97.5511 and 94.5216 and 90.4317; cell viability, Figure S9M ([3]; concentration 5000): 93.6885 and 92.1737 and 93.0068; cell viability, Figure S9M ([3]; concentration 10000): 96.718 and 96.0363 and 91.6435; cell viability, Figure S9M ([3]; concentration 20000): 91.6435 and 99.3688 and 98.3085; Inhibition, time-of-drug-addition (Figures S12A, S12B) ([4]; 1h, concentration 10000 (unit not given)): 18.697 and 20.3699 and 24.961; Inhibition, time-of-drug-addition (Figures S12A, S12B) ([4]; 1h, concentration 25000 (unit not given)): 81.3431 and 85.284 and 85.9984; Inhibition, time-of-drug-addition (Figures S12A, S12B) ([4]; 3h, concentration 3000 (unit not given)): 10.0367 and 8.463 and 5.695; Inhibition, time-of-drug-addition (Figures S12A, S12B) ([4]; 3h, concentration 10000 (unit not given)): 25.0374 and 23.4524 and 23.7085; Inhibition, time-of-drug-addition (Figures S12A, S12B) ([4]; 3h, concentration 25000 (unit not given)): 87.678 and 84.0771 and 84.6309; Inhibition, time-of-drug-addition (Figures S12A, S12B) ([4]; 5h, concentration 10000 (unit not given)): 24.2683 and 28.1902 and 26.5679; Inhibition, time-of-drug-addition (Figures S12A, S12B) ([4]; 5h, concentration 25000 (unit not given)): 80.9022 and 85.7938 and 85.9604; Inhibition, time-of-drug-addition (Figures S12A, S12B) ([4]; 7h, concentration 3000 (unit not given)): 11.352 and 13.6306 and 7.232; Inhibition, time-of-drug-addition (Figures S12A, S12B) ([4]; 7h, concentration 10000 (unit not given)): 27.8545 and 21.5848 and 25.4245; Inhibition, time-of-drug-addition (Figures S12A, S12B) ([4]; 7h, concentration 25000 (unit not given)): 81.9707 and 81.2844 and 80.2961; Inhibition, combination matrix (Figure S12C) ([5]; RTB 0.01 uM): -3.196; Inhibition, combination matrix (Figure S12D) ([5]; RTB 0.01 uM): 0.02357; Inhibition, combination matrix (Figure S12C) ([5]; RTB 0.03 uM): 0.4191; Inhibition, combination matrix (Figure S12D) ([5]; RTB 0.03 uM): 0.6847; Inhibition, combination matrix (Figure S12C) ([5]; RTB 0.1 uM): 5.187; Inhibition, combination matrix (Figure S12D) ([5]; RTB 0.1 uM): 4.267; Inhibition, combination matrix (Figure S12C) ([5]; RTB 0.3 uM): 0.1333; Inhibition, combination matrix (Figure S12D) ([5]; RTB 0.3 uM): 7.699; Inhibition, combination matrix (Figure S12C) ([5]; RTB 1 uM): 5.1; Inhibition, combination matrix (Figure S12D) ([5]; RTB 1 uM): 9.0154; Inhibition, combination matrix (Figure S12C) ([5]; RTB 3 uM): 12.0762; Inhibition, combination matrix (Figure S12D) ([5]; RTB 3 uM): 25.2258; Inhibition, combination matrix (Figure S12C) ([5]; RTB 10 uM): 64.6863; Inhibition, combination matrix (Figure S12D) ([5]; RTB 10 uM): 39.9859; Inhibition, combination matrix (Figure S12C) ([5]; RTB 25 uM): 94.0563; Inhibition, combination matrix (Figure S12D) ([5]; RTB 25 uM): 93.5156; combination effect in vitro ([5]; combined with molnupiravir): additive effects; combination effect in vitro ([5]; combined with nirmatrelvir): additive effects; Kd [6]: 4.82 µM; extracellular viral gRNA levels (RT-qPCR) ([7]; Fig 5I, HCoV-OC43 MOI = 1, ALI-cultured HBEs, 96 h, RTB dose 5 (unit not given)): 24 and 18 and 15; inhibition of infection in ALI cultures of HBEs ([7]; HCoV-OC43): significant, dose-dependent inhibition; EC50 ([8]; Betacoronavirus 1, OC43, 48 h, read-out: EC50 (IFA)): 13.9 µM; Inhibition rate (IFA) ([8]; conc 10 (unit not given)): 33.23% and 29.76% and 39.01%; Inhibition rate (IFA) ([8]; conc 30 (unit not given)): 30.69% and 22.69% and 29.93%; Inhibition rate (IFA) ([8]; conc 100 (unit not given)): 21.56% and 24.49% and 30.14%; Inhibition rate (IFA) ([8]; conc 300 (unit not given)): 23.53% and 24.32% and 29.19%; Inhibition rate (IFA) ([8]; conc 1000 (unit not given)): 26.08% and 27.96% and 36.83%; Inhibition rate (IFA) ([8]; conc 3000 (unit not given)): 25.37% and 28.07% and 29.03%; Inhibition rate (IFA) ([8]; conc 10000 (unit not given)): 32.25% and 33.08% and 32.48%; Inhibition rate (IFA) ([8]; conc 25000 (unit not given)): 79.43% and 69.76% and 58.83%; Inhibition rate (IFA) ([9]; conc 10 (unit not given)): 1.96% and 3.23% and 5.67%; Inhibition rate (IFA) ([9]; conc 30 (unit not given)): 3.76% and 4.49% and 3.62%; Inhibition rate (IFA) ([9]; conc 100 (unit not given)): 5.42% and 6.32% and 1.81%; Inhibition rate (IFA) ([9]; conc 200 (unit not given)): 10.91% and 9.21% and 8.05%; Inhibition rate (IFA) ([9]; conc 1000 (unit not given)): 20.9% and 20.96% and 21.52%; Inhibition rate (IFA) ([9]; conc 5000 (unit not given)): 53.61% and 55.59% and 56.09%; Inhibition rate (IFA) ([9]; conc 10000 (unit not given)): 87.09% and 86.7% and 87.17%; Inhibition rate (IFA) ([9]; conc 20000 (unit not given)): 98.7% and 98.72% and 98.89%; EC50 ([9]; Human coronavirus 229E, 48 h, read-out: EC50 (IFA)): 6.11 µM; Colocalization of M with Sec61b (Manders' coefficient) [10]: 0.92 and 0.994 and 0.992; M protein localization [10]: induced M retention in the ER; Sec61b colocalization coefficient (Figure 7I) [10]: 0.867 and 0.94 and 0.917; EC50 [11]: 14.8 µM; Extracellular MHV gRNA (Figure S11A) ([12]; Ctr 17Cl-1 cells, 24 hpi): 2.752 and 2.754 and 2.756; Extracellular MHV gRNA (Figure S11A) ([12]; Ctr 17Cl-1 cells, 48 hpi): 3.4199 and 3.426 and 3.424; Extracellular MHV gRNA (Figure S11A) ([12]; Ctr 17Cl-1 cells, 72 hpi): 4.001 and 4.062 and 3.972; Extracellular MHV gRNA (Figure S11A) ([12]; Hgs-KO1 17Cl-1 cells, 24 hpi): 1.499 and 1.531 and 1.548; Extracellular MHV gRNA (Figure S11A) ([12]; Hgs-KO1 17Cl-1 cells, 48 hpi): 1.985 and 1.987 and 1.914; Extracellular MHV gRNA (Figure S11A) ([12]; Hgs-KO1 17Cl-1 cells, 72 hpi): 3.343 and 3.307 and 3.373; Extracellular MHV gRNA (Figure S11A) ([12]; Hgs-KO2 17Cl-1 cells, 24 hpi): 1.087 and 1.162 and 1.202; Extracellular MHV gRNA (Figure S11A) ([12]; Hgs-KO2 17Cl-1 cells, 48 hpi): 1.5876 and 1.652 and 1.594; Extracellular MHV gRNA (Figure S11A) ([12]; Hgs-KO2 17Cl-1 cells, 72 hpi): 2.484 and 2.493 and 2.452; antiviral activity in Hgs-KO cells ([12]; MHV, Hgs-KO 17Cl-1, RTB 25 μM or RDV 5 μM, compared with DMSO-treated Hgs-KO cells): failed to inhibit viral infection
